Test results as given in patent publication US12534465B2, “5H-pyrrolo[3,2-d]pyrimidine-2,4-diamino compounds and antibody conjugates thereof” (SUTRO BIOPHARMA, INC., priority 2019, dated 2026).

How the values were obtained:
Format in all cases: cell-based
human TLR7 = target: T1, human TLR7 (Homo sapiens, UniProt Q9NYK1); test: HEK293 SEAP reporter assay, TLR panel (Example 10); details: 16 hrs
T1 construct: host or cells: HEK293
T1 sequence (Q9NYK1 27-1049): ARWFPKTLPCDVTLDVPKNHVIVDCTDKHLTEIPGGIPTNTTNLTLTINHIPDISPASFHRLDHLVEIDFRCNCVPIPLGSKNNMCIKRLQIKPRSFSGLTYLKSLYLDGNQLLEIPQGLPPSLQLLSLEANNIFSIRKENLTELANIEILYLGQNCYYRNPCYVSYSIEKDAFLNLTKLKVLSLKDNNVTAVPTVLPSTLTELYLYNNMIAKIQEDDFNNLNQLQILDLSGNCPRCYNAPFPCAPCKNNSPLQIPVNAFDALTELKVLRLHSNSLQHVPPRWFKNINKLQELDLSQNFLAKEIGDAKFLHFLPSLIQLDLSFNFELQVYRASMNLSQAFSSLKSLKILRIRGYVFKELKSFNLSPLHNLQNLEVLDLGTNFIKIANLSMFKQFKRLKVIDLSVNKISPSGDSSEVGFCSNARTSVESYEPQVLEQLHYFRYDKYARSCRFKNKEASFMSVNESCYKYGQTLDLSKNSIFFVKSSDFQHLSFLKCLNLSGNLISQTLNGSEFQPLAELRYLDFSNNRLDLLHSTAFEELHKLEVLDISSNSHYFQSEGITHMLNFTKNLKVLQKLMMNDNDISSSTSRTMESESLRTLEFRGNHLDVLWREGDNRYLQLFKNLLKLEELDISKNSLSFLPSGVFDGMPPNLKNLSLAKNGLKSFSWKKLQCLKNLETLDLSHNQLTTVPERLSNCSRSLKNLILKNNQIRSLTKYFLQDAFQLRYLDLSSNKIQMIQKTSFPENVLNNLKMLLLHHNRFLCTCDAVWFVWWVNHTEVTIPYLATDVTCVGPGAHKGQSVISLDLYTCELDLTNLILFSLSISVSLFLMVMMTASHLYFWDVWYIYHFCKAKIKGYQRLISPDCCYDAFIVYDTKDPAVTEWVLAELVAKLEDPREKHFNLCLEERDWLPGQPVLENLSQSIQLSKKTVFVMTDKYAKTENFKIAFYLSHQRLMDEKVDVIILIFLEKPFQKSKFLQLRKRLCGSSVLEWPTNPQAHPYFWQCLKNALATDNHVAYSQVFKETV
Description: (§1) In this example, the activity of the compound 10 to stimulate different human and mouse TLR pathways was investigated on HEK293 cells transfected with inducible SEAP (secreted embryonic alkaline phosphatase) reporter genes and also expressing different human TLRs (TLR2, TLR3, TLR4, TLR5, TLR7, TLR8, TLR9) or mouse TLRs (TLR2, TLR3, TLR4, TLR5, TLR7, TLR8, TLR13).
(§2) HEK293 reporter cell lines were purchased from Invivogen and cell lines were maintained in manufacture recommended culture medium with required supplemental antibiotics. On the day of assay, the cells were harvested with Accutase and counted by the Vi-CELL Cell Viability Analyzers. Cells were resuspended in HEK blue detection medium and a total of 10000 cells were seeded in each well of a 384-well flat bottom plate. Serial dilutions of compound 10 and compound 1 was added into treatment wells. Assay plates were cultured at 37° C. in a CO2 incubator for 16 hrs. HEK-Blue™ Detection medium changes to a purple/blue color in the presence of secreted SEAP, which can be detected by spectrophotometry at 620-655 nm. Data was fitted with non-linear regression analysis, using a log(inhibitor) vs. response-variable slope, 3-parameter fit with GraphPad Prism.

mouse TLR7 = target: T2, mouse TLR7 (Mus musculus, UniProt P58681); test: HEK293 SEAP reporter assay, TLR panel (Example 10); details: 16 hrs
T2 construct: host or cells: HEK293
T2 sequence (P58681 27-1050): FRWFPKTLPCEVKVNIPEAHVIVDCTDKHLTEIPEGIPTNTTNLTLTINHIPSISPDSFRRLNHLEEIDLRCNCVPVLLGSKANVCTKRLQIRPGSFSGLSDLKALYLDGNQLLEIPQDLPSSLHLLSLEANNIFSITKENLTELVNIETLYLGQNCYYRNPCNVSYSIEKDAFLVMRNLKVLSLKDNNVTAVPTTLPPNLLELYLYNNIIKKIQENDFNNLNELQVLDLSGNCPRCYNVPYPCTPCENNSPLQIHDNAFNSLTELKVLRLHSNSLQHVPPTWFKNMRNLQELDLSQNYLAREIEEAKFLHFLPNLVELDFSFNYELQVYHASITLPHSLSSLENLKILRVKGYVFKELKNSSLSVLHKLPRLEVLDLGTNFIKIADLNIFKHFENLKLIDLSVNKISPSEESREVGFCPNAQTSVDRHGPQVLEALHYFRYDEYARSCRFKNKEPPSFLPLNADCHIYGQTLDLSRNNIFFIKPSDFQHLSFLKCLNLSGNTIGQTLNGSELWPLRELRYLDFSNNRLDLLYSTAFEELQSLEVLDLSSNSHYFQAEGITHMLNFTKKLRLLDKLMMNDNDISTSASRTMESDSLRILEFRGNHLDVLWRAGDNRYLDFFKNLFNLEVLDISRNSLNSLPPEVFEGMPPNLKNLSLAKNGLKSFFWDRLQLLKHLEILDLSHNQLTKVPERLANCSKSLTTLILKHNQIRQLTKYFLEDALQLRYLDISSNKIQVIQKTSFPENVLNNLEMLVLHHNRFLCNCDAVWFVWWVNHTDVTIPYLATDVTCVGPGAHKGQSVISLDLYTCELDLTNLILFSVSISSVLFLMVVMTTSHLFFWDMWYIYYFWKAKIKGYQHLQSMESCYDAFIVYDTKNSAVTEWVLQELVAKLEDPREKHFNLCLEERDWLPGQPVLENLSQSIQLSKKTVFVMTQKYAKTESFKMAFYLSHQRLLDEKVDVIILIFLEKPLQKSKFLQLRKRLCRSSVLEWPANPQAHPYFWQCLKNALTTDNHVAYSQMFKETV
Description: as §1, §2

mouse splenocytes = test: Cytokine release (ELISA); details: 48 hr, 10 μg/mL LPS-RS
Description: (§3) This example evaluates the ability of Compound 10 to induce cytokine release in human PBMCs, cyno PBMCs and mouse splenocytes. Compound 1 and resiquimod:
(§4) Human and cyno PBMCs, mouse splenocytes were isolated as described in previous example. The day of the assay, 300 k of PBMC or splenocytes in 50 μL of culture medium were seeded in 96-well cell culture plates. 50 μl of the test articles (formulated at 2× of starting concentration) were then added into the well. The cell mixtures were co-cultured in the presence of test articles and 10 μg/mL LPS-RS for 24 hr (human PBMCs) or 48 hr (cyno PBMCs and mouse splenocytes). Cytokines released were measured by ELISA using cell culture medium.

human PBMCs = test: Cytokine release (ELISA); details: 24 hr, 10 μg/mL LPS-RS
Description: as §3, §4

EC50 (human TLR7) [nM] | EC50 (mouse TLR7) [nM] | SMILES | IL-6 release (mouse splenocytes; FIG. 6A) | MCP-1 release (mouse splenocytes; FIG. 6B) | TNFa release (mouse splenocytes; FIG. 6C) | IP-10 release (mouse splenocytes; FIG. 6D) | IL-6 release (human PBMCs; FIG. 4A) | MCP-1 release (human PBMCs; FIG. 4B) | IL1Ra release (human PBMCs; FIG. 4C)
2.17 | 2.6 | CCCCCNc1nc(N)nc2ccn(Cc3ccc(CN4CCNCC4)cc3OC)c12 [Compound 1, 5-(2-methoxy-4-(piperazin-1-ylmethyl)benzyl)-N4-pentyl-5H-pyrrolo[3,2-d]pyrimidine-2,4-diamine, reference compound] |  |  |  |  |  |  | 
11 | 22.9 | CCCCCNc1nc(N)nc2ccn(Cc3ccc(CN4CC5(CNCCO5)C4)cc3OC)c12 [Compound 10, 5-[[2-methoxy-4-(5-oxa-2,8-diazaspiro[3.5]nonan-2-ylmethyl)phenyl]methyl]-N4-pentyl-pyrrolo[3,2-d]pyrimidine-2,4-diamine] | strong | strong | strong | strong | strong | strong | strong
